Source: patent US8604217B2, “Compound, a process for its preparation, a pharmaceutical composition, use of a compound, a method for modulating or regulating serine/threonine kinases and a serine/threonine kinases modulating agent” (Selvita S.A., priority 2009, dated 2013)
Values belong to the compound of their own block, whether it stands above or below them.

How the values were obtained:
JAK3(h) = JAK3(h) (Homo sapiens (Human), UniProt P52333); test: KinaseProfiler kinase panel; type: biochemical
JAK3(h), sequence (P52333 whole entry): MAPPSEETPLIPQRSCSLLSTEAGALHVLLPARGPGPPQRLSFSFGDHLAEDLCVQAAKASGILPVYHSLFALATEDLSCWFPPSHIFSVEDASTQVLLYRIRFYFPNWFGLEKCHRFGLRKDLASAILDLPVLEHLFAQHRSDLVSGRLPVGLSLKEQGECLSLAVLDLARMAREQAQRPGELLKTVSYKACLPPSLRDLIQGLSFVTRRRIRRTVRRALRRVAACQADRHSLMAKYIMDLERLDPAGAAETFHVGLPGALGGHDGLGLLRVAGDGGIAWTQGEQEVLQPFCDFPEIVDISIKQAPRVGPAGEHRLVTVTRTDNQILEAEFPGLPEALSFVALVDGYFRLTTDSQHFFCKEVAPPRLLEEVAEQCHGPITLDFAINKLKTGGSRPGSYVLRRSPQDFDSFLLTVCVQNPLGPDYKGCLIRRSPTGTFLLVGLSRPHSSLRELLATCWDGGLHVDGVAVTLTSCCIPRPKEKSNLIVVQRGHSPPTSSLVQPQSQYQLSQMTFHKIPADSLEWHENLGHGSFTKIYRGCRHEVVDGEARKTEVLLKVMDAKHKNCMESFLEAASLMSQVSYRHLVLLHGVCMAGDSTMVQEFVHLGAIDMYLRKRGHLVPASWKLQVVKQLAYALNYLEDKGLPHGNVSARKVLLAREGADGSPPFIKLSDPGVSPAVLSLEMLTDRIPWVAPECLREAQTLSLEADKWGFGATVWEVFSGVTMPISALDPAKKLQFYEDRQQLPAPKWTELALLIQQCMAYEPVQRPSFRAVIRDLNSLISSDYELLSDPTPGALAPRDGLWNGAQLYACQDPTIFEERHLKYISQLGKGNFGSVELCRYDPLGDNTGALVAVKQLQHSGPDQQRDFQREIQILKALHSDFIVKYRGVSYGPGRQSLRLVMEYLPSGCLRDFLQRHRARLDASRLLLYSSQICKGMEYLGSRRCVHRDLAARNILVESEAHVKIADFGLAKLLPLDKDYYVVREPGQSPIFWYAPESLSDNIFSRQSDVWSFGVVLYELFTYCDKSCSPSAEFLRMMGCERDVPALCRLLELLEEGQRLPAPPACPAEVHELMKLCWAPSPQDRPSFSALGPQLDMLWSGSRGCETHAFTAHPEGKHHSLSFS

JNK1α1(h) = JNK1α1(h) (Homo sapiens (Human), UniProt P45983); test: KinaseProfiler kinase panel; type: biochemical
JNK1α1(h), sequence (P45983 other isoform, or with tags, fused parts or gaps): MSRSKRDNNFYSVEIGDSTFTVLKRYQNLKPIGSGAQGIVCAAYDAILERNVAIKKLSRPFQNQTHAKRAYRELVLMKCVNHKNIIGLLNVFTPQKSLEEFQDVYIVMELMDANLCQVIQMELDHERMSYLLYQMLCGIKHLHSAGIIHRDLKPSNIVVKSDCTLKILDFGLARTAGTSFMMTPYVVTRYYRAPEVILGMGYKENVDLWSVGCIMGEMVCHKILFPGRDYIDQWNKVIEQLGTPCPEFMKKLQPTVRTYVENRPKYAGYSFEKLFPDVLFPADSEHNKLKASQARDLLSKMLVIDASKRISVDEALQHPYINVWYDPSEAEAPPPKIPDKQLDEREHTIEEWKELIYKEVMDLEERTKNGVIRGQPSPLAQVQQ

CaMKI(h) = CaMKI(h) (Homo sapiens (Human), UniProt Q14012); test: KinaseProfiler kinase panel; type: biochemical
WNK2(h) = WNK2(h) (Homo sapiens (Human), UniProt Q9Y3S1); test: KinaseProfiler kinase panel; type: biochemical
DAPK2(h) = DAPK2(h) (Homo sapiens (Human), UniProt Q9UIK4); test: KinaseProfiler kinase panel; type: biochemical
IKKα(h) = IKKα(h) (Homo sapiens (Human), UniProt O15111); test: KinaseProfiler kinase panel; type: biochemical
PKCζ(h) = PKCζ(h) (Homo sapiens (Human), UniProt Q05513); test: KinaseProfiler kinase panel; type: biochemical
MLK1(h) = MLK1(h) (Homo sapiens (Human), UniProt P80192); test: KinaseProfiler kinase panel; type: biochemical
ALK4(h) = ALK4(h) (Homo sapiens (Human), UniProt P36896); test: KinaseProfiler kinase panel; type: biochemical
FGFR1(V561M)(h) = FGFR1(V561M)(h) (Homo sapiens (Human), UniProt P11362, V561M); test: KinaseProfiler kinase panel; type: biochemical
JNK3(h) = JNK3(h) (Homo sapiens (Human), UniProt P53779); test: KinaseProfiler kinase panel; type: biochemical
JNK3(h), sequence (P53779 whole entry): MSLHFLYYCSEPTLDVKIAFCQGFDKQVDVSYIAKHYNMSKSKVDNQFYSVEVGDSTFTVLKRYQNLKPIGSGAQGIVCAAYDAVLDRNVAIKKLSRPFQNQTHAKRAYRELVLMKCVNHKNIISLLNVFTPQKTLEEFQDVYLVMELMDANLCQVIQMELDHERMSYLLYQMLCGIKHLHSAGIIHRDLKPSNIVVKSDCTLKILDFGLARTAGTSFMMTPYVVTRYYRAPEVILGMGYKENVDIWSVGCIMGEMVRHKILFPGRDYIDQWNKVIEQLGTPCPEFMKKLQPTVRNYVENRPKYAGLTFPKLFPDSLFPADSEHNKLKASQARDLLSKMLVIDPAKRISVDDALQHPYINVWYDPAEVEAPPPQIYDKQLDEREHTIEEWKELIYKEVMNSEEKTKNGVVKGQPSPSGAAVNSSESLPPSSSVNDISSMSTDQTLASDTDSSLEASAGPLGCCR

AMPKα2(h) = AMPKα2(h) (Homo sapiens (Human), UniProt P54646); test: KinaseProfiler kinase panel; type: biochemical
Rse(h) = Rse(h) (Homo sapiens (Human), UniProt Q06418); test: KinaseProfiler kinase panel; type: biochemical
Rse(h), sequence (Q06418 41-890): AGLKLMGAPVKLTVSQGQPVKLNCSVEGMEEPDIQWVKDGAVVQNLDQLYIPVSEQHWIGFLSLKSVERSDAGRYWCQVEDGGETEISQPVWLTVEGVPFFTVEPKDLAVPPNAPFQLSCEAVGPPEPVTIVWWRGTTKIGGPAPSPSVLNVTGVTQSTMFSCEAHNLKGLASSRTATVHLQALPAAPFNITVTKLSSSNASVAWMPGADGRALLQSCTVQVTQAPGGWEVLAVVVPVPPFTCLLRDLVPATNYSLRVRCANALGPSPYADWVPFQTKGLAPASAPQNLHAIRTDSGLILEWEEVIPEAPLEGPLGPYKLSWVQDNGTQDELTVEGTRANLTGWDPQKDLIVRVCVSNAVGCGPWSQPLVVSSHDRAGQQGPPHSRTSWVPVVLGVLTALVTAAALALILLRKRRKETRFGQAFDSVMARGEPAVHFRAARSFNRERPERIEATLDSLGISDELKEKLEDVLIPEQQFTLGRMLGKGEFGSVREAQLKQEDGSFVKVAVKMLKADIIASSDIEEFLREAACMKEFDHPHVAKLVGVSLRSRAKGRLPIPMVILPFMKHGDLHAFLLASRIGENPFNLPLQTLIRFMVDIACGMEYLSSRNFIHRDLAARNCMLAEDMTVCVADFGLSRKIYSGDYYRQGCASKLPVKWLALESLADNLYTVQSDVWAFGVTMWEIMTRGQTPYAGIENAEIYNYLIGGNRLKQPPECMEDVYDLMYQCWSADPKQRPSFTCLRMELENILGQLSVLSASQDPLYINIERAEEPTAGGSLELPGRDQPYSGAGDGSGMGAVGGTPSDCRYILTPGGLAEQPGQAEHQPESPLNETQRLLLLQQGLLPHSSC

CDK7/cyclinH/MAT1(h) = CDK7/cyclinH/MAT1(h) (Homo sapiens (Human), UniProt P50613); test: KinaseProfiler kinase panel; type: biochemical
ROCK-I(h) = ROCK-I(h) (Homo sapiens (Human), UniProt Q13464); test: KinaseProfiler kinase panel; type: biochemical
ROCK-I(h), sequence (Q13464 whole entry): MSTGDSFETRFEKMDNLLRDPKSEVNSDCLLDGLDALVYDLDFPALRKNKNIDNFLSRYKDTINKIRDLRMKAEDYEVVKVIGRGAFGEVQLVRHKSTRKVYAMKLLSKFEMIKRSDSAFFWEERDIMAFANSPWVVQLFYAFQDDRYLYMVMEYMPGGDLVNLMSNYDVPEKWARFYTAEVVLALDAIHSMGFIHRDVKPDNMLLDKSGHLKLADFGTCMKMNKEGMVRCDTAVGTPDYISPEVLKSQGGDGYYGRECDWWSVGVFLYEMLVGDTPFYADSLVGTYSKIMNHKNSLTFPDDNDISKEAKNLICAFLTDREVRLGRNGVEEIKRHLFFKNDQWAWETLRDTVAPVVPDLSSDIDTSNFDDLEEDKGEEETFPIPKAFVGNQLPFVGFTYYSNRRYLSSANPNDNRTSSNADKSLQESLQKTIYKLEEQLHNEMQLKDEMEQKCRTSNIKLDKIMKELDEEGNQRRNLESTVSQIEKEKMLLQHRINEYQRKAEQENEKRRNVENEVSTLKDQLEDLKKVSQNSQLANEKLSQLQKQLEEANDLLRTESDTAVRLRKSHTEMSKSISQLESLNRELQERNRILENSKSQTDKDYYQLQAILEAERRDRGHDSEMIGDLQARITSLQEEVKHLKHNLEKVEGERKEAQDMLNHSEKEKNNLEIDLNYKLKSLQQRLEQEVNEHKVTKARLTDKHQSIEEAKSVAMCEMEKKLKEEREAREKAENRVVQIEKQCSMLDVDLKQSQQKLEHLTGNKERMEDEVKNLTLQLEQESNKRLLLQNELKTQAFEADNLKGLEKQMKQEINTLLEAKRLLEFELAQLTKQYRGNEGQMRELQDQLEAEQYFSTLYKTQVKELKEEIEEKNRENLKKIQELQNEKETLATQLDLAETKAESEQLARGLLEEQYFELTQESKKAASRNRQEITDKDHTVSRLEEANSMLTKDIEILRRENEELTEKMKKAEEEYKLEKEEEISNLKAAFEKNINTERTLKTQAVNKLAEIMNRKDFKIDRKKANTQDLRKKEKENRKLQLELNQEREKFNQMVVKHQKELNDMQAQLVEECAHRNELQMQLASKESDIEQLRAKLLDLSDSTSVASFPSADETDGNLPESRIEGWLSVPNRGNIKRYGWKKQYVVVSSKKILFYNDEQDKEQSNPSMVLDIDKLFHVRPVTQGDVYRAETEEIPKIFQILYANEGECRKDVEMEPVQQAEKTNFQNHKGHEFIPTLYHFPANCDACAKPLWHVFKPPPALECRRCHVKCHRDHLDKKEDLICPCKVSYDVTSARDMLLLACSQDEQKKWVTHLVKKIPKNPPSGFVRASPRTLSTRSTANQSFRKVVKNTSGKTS

MSK1(h) = MSK1(h) (Homo sapiens (Human), UniProt O75582); test: KinaseProfiler kinase panel; type: biochemical
CHK2(h) = CHK2(h) (Homo sapiens (Human), UniProt O96017); test: KinaseProfiler kinase panel; type: biochemical
FGFR3(h) = FGFR3(h) (Homo sapiens (Human), UniProt P22607); test: KinaseProfiler kinase panel; type: biochemical
IRAK4(h) = IRAK4(h) (Homo sapiens (Human), UniProt Q9NWZ3); test: KinaseProfiler kinase panel; type: biochemical
DYRK2(h) = DYRK2(h) (Homo sapiens (Human), UniProt Q92630); test: KinaseProfiler kinase panel; type: biochemical
CK1(y) = test: KinaseProfiler kinase panel; type: biochemical, yeast; conditions: 1 μM
PKCβII(h) = PKCβII(h) (Homo sapiens (Human), UniProt P05771); test: KinaseProfiler kinase panel; type: biochemical
MAPK2(h) = MAPK2(h) (Homo sapiens (Human), UniProt P28482); test: KinaseProfiler kinase panel; type: biochemical
EphA1(h) = EphA1(h) (Homo sapiens (Human), UniProt P21709); test: KinaseProfiler kinase panel; type: biochemical
TRKA(h) = TRKA(h) (Homo sapiens (Human), UniProt P04629); test: KinaseProfiler kinase panel; type: biochemical
Plk1(h) = Plk1(h) (Homo sapiens (Human), UniProt P53350); test: KinaseProfiler kinase panel; type: biochemical
Aurora-B(h) = Aurora-B(h) (Homo sapiens (Human), UniProt Q96GD4); test: KinaseProfiler kinase panel; type: biochemical
ErbB4(h) = ErbB4(h) (Homo sapiens (Human), UniProt Q15303); test: KinaseProfiler kinase panel; type: biochemical
PDGFRα(V561D)(h) = PDGFRα(V561D)(h) (Homo sapiens (Human), UniProt P16234, V561D); test: KinaseProfiler kinase panel; type: biochemical
Snk(h) = Snk(h) (Homo sapiens (Human), UniProt Q9NYY3); test: KinaseProfiler kinase panel; type: biochemical
MARK1(h) = MARK1(h) (Homo sapiens (Human), UniProt Q9P0L2); test: KinaseProfiler kinase panel; type: biochemical
CaMKIIβ(h) = CaMKIIβ(h) (Homo sapiens (Human), UniProt Q13554); test: KinaseProfiler kinase panel; type: biochemical
CaMKIIβ(h), sequence (Q13554 whole entry): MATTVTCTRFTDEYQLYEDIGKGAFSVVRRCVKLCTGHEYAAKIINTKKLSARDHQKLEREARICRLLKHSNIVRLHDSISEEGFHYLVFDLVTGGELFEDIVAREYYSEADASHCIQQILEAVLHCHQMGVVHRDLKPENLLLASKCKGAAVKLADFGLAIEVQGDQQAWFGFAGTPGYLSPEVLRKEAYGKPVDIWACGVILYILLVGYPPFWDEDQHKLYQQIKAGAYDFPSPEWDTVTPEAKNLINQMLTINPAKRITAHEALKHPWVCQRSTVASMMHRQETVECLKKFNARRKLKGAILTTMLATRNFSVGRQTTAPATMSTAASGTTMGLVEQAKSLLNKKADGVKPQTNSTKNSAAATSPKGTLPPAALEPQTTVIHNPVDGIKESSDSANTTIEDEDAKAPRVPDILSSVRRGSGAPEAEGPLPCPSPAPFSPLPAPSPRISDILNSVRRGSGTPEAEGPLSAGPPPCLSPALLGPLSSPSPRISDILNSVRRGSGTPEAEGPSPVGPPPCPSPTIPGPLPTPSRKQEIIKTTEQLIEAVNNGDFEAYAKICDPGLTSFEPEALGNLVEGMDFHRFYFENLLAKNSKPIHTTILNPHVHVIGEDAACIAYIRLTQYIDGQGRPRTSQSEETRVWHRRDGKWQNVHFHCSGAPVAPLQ

Abl(Y253F)(h) = Abl(Y253F)(h) (Homo sapiens (Human), UniProt P00519, Y253F); test: KinaseProfiler kinase panel; type: biochemical
Flt1(h) = Flt1(h) (Homo sapiens (Human), UniProt P17948); test: KinaseProfiler kinase panel; type: biochemical
MAPK2(m) = MAPK2(m) (Mus musculus (Mouse), UniProt P63085); test: KinaseProfiler kinase panel; type: biochemical
MSSK1(h) = MSSK1(h) (Homo sapiens (Human), UniProt Q9UPE1); test: KinaseProfiler kinase panel; type: biochemical
CDK2/cyclin A = CDK2/cyclin A (Homo sapiens (Human), UniProt P24941); conditions: tested at 1 μM; cited from earlier work

remaining activity at 1 µM (JAK3(h)): 74%
remaining activity at 1 µM (JNK1α1(h)): 97%
remaining activity at 1 µM (CaMKI(h)): 89%
remaining activity at 1 µM (WNK2(h)): 102%
remaining activity at 1 µM (DAPK2(h)): 92%
remaining activity at 1 µM (IKKα(h)): 56%
remaining activity at 1 µM (PKCζ(h)): 107%
remaining activity at 1 µM (MLK1(h)): 87%
remaining activity at 1 µM (ALK4(h)): 112%
remaining activity at 1 µM (FGFR1(V561M)(h)): 69%
remaining activity at 1 µM (JNK3(h)): 87%
remaining activity at 1 µM (AMPKα2(h)): 67%
remaining activity at 1 µM (Rse(h)): 105%
remaining activity at 1 µM (CDK7/cyclinH/MAT1(h)): 25%
remaining activity at 1 µM (ROCK-I(h)): 90%
remaining activity at 1 µM (MSK1(h)): 54%
remaining activity at 1 µM (CHK2(h)): 76%
remaining activity at 1 µM (FGFR3(h)): 105%
remaining activity at 1 µM (IRAK4(h)): 52%
remaining activity at 1 µM (DYRK2(h)): 45%
% remaining activity (CK1(y)): 6%
remaining activity at 1 µM (PKCβII(h)): 98%
remaining activity at 1 µM (MAPK2(h)): 81%
remaining activity at 1 µM (EphA1(h)): 75%
remaining activity at 1 µM (TRKA(h)): 35%
remaining activity at 1 µM (Plk1(h)): 117%
remaining activity at 1 µM (Aurora-B(h)): 80%
remaining activity at 1 µM (ErbB4(h)): 89%
remaining activity at 1 µM (PDGFRα(V561D)(h)): 68%
remaining activity at 1 µM (Snk(h)): 90%
remaining activity at 1 µM (MARK1(h)): 91%
remaining activity at 1 µM (CaMKIIβ(h)): 67%
remaining activity at 1 µM (Abl(Y253F)(h)): 92%
remaining activity at 1 µM (Flt1(h)): 40%
remaining activity at 1 µM (MAPK2(m)): 82%
remaining activity at 1 µM (MSSK1(h)): 87%
Structure (SMILES): CCn1c(N2CCNCC2)nc2c(Br)c(Br)c(Br)c(Br)c21 [Compound 416, 4,5,6,7-tetrabromo-1-ethyl-2-(piperazin-1-yl)-1H-benzo[d]imidazole]

Structure (SMILES): CN(C)c1nc2c(Br)c(Br)c(Br)c(Br)c2[nH]1 [DMAT, 2-dimethylamino-4,5,6,7-tetrabromo-1H-benzimidazole, reference compound]
inhibition of CDK2/cyclin A activity (CDK2/cyclin A): do not inhibit
